# Molecular target: T1, HMG-CoA synthase (Rattus norvegicus, UniProt P17425)
# T1 construct: The livers from male Charles River CD rats (225-350 g) were homogenized in 0.25 M sucrose; from tissue; host or cells: rat liver (male Charles River CD rats), 100,000×g supernatant, ammonium sulfate precipitate, DEAE-52 fraction
# T1 sequence (P17425 1-520): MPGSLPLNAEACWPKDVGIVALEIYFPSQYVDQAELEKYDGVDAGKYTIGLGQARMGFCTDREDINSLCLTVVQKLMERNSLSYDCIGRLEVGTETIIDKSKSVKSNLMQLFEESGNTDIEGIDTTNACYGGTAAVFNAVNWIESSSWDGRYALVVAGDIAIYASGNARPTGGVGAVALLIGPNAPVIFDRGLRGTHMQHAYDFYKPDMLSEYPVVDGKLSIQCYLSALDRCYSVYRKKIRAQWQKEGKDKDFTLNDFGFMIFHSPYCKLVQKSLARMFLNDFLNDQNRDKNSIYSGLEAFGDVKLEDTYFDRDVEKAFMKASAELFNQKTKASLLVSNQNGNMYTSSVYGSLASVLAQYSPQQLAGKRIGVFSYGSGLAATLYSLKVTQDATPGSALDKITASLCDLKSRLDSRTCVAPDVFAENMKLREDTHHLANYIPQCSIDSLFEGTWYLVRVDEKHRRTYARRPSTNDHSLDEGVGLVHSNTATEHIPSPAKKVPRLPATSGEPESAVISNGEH
# Test: HMG-CoA synthase inhibition assay (in vitro, enzyme partially purified from rat liver)
# Format: biochemical
# Conditions: HMG-CoA synthase activity; 5 min preincubation, 30°; read-out: IC50
# Protocol: The intrinsic HMG-CoA synthase inhibition activity of the compounds of this invention is measured by the standard in vitro protocol described below:
# The livers from male Charles River CD rats (225-350 g) were homogenized in 0.25 M sucrose which was adjusted with phenylmethylsulfonylfluoride (PMSF) and N-p-tosyl-1-lysine chloromethyl ketone (TLCK) so that the final concentration of each was 50 and 25 μg/ml, respectively. The homogenate was centrifuged at 15,000×g for 20 minutes, the supernatant filtered through a fine nylon screen to remove most of the fat layer and recentrifuged at 100,000×g for 1 hour. This supernatant was removed and 1 M potassium phosphate, dithiothreitol (DTT) and ethylene glycolbis(β-aminoethyl ether)-N,N,N',N'-tetraacetic acid (EGTA) added to give a final concentration of 0.1 M (pH 7.2), 0.5 mM and 0.1 mM, respectively. Solid ammonium sulfate was added to 50% saturation to the protein solution, it was centrifuged at 15,000×g and the […]. This precipitated protein could be stored at -70° for at least one month with very little loss of activity. The ammonium sulfate rrecipitate was dissolved in an minimal amount of 0.06 M potassium phosphate buffer (pH 7.2) containing 0.5 mM dithiothreitol and 0.1 mM EGTA (referred to as 0.06 M phosphate buffer) and dialyzed overnight against 2 liters of the same buffer to remove the ammonium sulfate and to inactivate HMG-CoA lyase [Clinkenbeard, et al., J. Biol. Chem 250, 3108-3116(1975)].
# The dialyzed extract was added to a column of DEAE-52 (Whatman) which had been equilibrated with 0.06 M phosphate buffer (10 mg of protein to 1 ml bed volume of the resin). The DEAE-cellulose was eluted with 0.06 M Phosphate buffer until the optical density at 280 nm was essentially zero. This fraction contained the β-ketoacetyl-CoA thiolase activity. The HMG-CoA synthase was eluted from the column with 0.1 M phosphate buffer (pH 7.2) containing 0.5 mM DTT and 0.1 mM EGTA, and was virtually free of all thiolase activity. The protein was precipitated by the addition of ammonium sulfate to give 50% saturation. This solution was stirred for 10 minutes at 4° C. and the precipitate collected by centrifugation at 15,000 rpm for 10 minutes. The supernatant was discarded and the precipitate dissolved in a minimum of 0.06 M phosphate buffer, pH 7.2 (about 10 ml) and the enzyme stored at -80° C.
# HMG-CoA Synthase Inhibition Assay
# Enzyme protein (ca. 24 μg) was added to a solution containing 117 mM Tris-HCl (pH 8.0), 11.7 mM MgCl2, 1.17 mM Ethylenediaminetetraacetic acid (EDTA), 0.58 mM dithiothreitol, and the indicated concentrations of the test compound (added as a 2 μg/ml solution in dimethylsulfoxide). The incubation took place in a volume of 0.085 ml at 30° in a shaking water bath. After 5 minutes, 15 μl of a solution containing acetoacetyl-CoA and 0.1 μCi of 1-[^14 C]-acetyl-CoA was added to give a final concentrations of 0.1 and 0.4 mM, respectively. The incubation was continued for 10 more minutes and the reaction stopped by the addition of 50 μl of the assay mixture to 0.2 ml of 6N HCl in a glass scintillation vial. The vial was heated for 1 hour at 120° after which time 0.2 ml more of 6N HCl was again added to each vial and the heating continued for another hour. Following this, 1.0 ml of 0.9% saline was added to each vial and finally 10 ml of scintillation liquid. Radioactivity was determined in a Packard Tri-Carb liquid scintillation counter. Percent inhibition is calculated by the formula: [formula] IC50 values were determined by plotting the log of the concentration of the test compound verses the percentage inhibition and fitting a straight line to the resulting data by using the least squares method.
row,Compound,IC50 [nM]
1,"COC(=O)C=C(C)C=C(C)CC(C)CCCCC1OC(=O)C1COS(C)(=O)=O (stereo not drawn) [Example 16, methyl 11-(3-methanesulfonyloxymethyl-4-oxo-2-oxetano)-3,5,7-trimethyl-2,4-undecadienoate]",240
2,"C=CCOCC1C(=O)OC1CCCCC(C)CC(C)=CC(C)=CC(=O)OC (stereo not drawn) [Example 13, methyl 11-[3-(2-propenyloxymethyl)-4-oxo-2-oxetano]-3,5,7-trimethyl-2,4-undecadienoate]",1000
3,"COCC1C(=O)OC1CCCCC(C)CC(C)=CC(C)=CC(=O)OC (stereo not drawn) [Example 11, methyl 11-(3-methoxymethyl-4-oxo-2-oxetano)-3,5,7-trimethyl-2,4-undecadienoate]",270
4,"CCCCCCNC(=O)C=C(C)C=C(C)CC(C)CCCCC1OC(=O)C1CO (stereo not drawn) [Example 7, N-n-hexyl 11-(3-hydroxymethyl-4-oxo-2-oxetano)-3,5,7-trimethyl-2,4-undecadienamide]",200
5,"COc1ccc(C(OCC2C(=O)OC2CCCCC(C)CC(C)=CC(C)=CC(=O)O)(c2ccccc2)c2ccccc2)cc1 (stereo not drawn) [Example 15, 11-(3-anisyldiphenylmethyloxymethyl-4-oxo-2-oxetano)-3,5,7-trimethyl-2,4-undecadienoic acid]",10000
6,"CC(=CC(=O)Nc1ccc(Br)cc1)C=C(C)CC(C)CCCCC1OC(=O)C1CO (stereo not drawn) [Example 9, N--(4-bromophenyl)-11-(3-hydroxymethyl-4-oxo-2-oxetano)-3,5,7-trimethyl-2,4-undecadienamide]",100
7,"CCOCC1C(=O)OC1CCCCC(C)CC(C)=CC(C)=CC(=O)OC (stereo not drawn) [Example 12, methyl 11-(3-ethoxymethyl-4-oxo-2-oxetano)-3,5,7-trimethvl-2.4-undecadienoate]",700
8,"COC(=O)C=C(C)C=C(C)CC(C)CCCCC1OC(=O)C1COC=O (stereo not drawn) [Example 17, methyl 11-(3-formyloxymethyl-4-oxo-2-oxetano)-3,5,7-trimethyl-2,4-undecadienoate]",140
9,"CC(=CC(=O)NCCO)C=C(C)CC(C)CCCCC1OC(=O)C1CO (stereo not drawn) [Example 10, N--(2-hydroxyethyl)-11-(3-hydroxymethyl-4-oxo-2-oxetano)-3,5,7-trimethyl-2,4-undecadienamide]",< 100
10,"COC(=O)C=C(C)C=C(C)CC(C)CCCCC1OC(=O)C1COC(=O)CCC(=O)O (stereo not drawn) [methyl 11-[3-(3-carboxypropionyloxymethyl)-4-oxo-2-oxetano]-3,5,7-trimethyl-2,4-undecadienoate]",2400
11,"CC(=CC(=O)Sc1ccccn1)C=C(C)CC(C)CCCCC1OC(=O)C1CO (stereo not drawn) [2-pyridyl 11-(3-hydroxymethyl-4-oxo-2-oxetano)-3,5,7-trimethyl-2,4-undecadienthioate]",120
12,"CC(=CC(=O)OC(C)(C)C)C=C(C)CC(C)CCCCC1OC(=O)C1CO (stereo not drawn) [Example 20, tert-butyl 11-(3-hydroxymethyl-4-oxo-2-oxetano)-3,5,7-trimethyl-2,4-undecadienoate]",500
13,"CC(=CC(N)=O)C=C(C)CC(C)CCCCC1OC(=O)C1CO (stereo not drawn) [Example 8, 11-(3-hydroxymethyl-4-oxo-2-oxetano)-3,5,7-trimethyl-2,4-undecadienamide]",< 100
14,"COCC1C(=O)OC1CCCCC(C)CC(C)=CC(C)=CC(=O)O (stereo not drawn) [Example 14, 11-(3-methoxymethyl-4-oxo-2-oxetano)-3,5,7-trimethyl-2,4-undecadienoic acid]",110

# Same assay, conditions: at 4.0 μg/ml
row,Compound,percent inhibition [%]
1,"methyl 11-[3-(N-methylurethanylmethyl)-4-oxo-2-oxetano]-3,5,7-trimethyl-2,4-undecadienoate [Example 19]",86.2

# Same assay, conditions: at 40 μg/ml
row,Compound,percent inhibition [%]
1,"methyl 11-(3-urethanylmethyl)-4-oxo-2-oxetano)-3,5,7-trimethyl-2,4-undecadienoate",80.6

# Same assay, conditions: at 10^-5 M (IC25); read-out: percent inhibition
row,Compound,inhibition at 10 µM [%]
1,"CCC(C)C(=O)OCC1C(=O)OC1CCCCC(C)CC(C)=CC(C)=CC(=O)OC (stereo not drawn) [Example 18, methyl 11-[3-(2-methylbutyryloxymethyl)-4-oxo-2-oxetano]-3,5,7-trimethyl-2,4-undecadienoate]",25.4

# Same assay, conditions: printed as (40 μg/ml) without footnote; read-out: IC50 (value printed in brackets as a concentration) (converted)
row,Compound,IC50 [nM]
1,"COCC1C(=O)OC1CCCCC(C)CC(C)=CC(C)=CC(=O)OC(c1ccccc1)c1ccccc1 (stereo not drawn) [Example 14 Step B, Diphenylmethyl 11-(3-methoxymethyl-4-oxo-2-oxetano)-3,5,7-trimethyl-2,4-undecadienoate]",79300

# Source: patent US4847271A, “Antihypercholesterolemic β-lactones” (Merck & Co., Inc., priority 1987, dated 1989)
